According to PubChem BioAssay AID330 (DTP/NCI, 2004):
Where “and” joins values, the source holds several entries; their conditions need not be identical. Identical values can stand only once. Inconclusive results and toxic doses are left out.

System: P388 leukemia ip, CD2F1 mice, survival T/C
Assay: NCI In Vivo Anticancer Drug Screen. Data for tumor model P388 Leukemia (intraperitoneal) in CD2F1 (CDF1) mice
Conditions: endpoint: median survival time, higher = longer survival
Outline: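 Mice carrying the transplanted tumor received test compound or vehicle. Survival was recorded in each group, and the value is the treated-group measurement divided by that of the vehicle-treated control group.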

[1] = dose: 12.5 mg/kg/injection, schedule: Q01DX009 (ip), vehicle: Klucel (hydroxypropylcellulose) (HPC)
[2] = dose: 25.0 mg/kg/injection, schedule: Q01DX009 (ip), vehicle: Klucel (hydroxypropylcellulose) (HPC)
[3] = dose: 50.0 mg/kg/injection, schedule: Q01DX009 (ip), vehicle: Klucel (hydroxypropylcellulose) (HPC)
[4] = dose: 100.0 mg/kg/injection, schedule: Q01DX009 (ip), vehicle: saline with Tween-80
[5] = dose: 200.0 mg/kg/injection, schedule: Q01DX009 (ip), vehicle: saline with Tween-80
[6] = dose: 100.0 mg/kg/injection, schedule: Q04DX003 (ip), vehicle: Klucel (hydroxypropylcellulose) (HPC)
[7] = dose: 200.0 mg/kg/injection, schedule: Q04DX003 (ip), vehicle: Klucel (hydroxypropylcellulose) (HPC)
[8] = dose: 400.0 mg/kg/injection, schedule: Q04DX003 (ip), vehicle: Klucel (hydroxypropylcellulose) (HPC)
[9] = dose: 100.0 mg/kg/injection, schedule: Q01DX009 (ip), vehicle: Klucel (hydroxypropylcellulose) (HPC)
[10] = dose: 200.0 mg/kg/injection, schedule: Q01DX009 (ip), vehicle: Klucel (hydroxypropylcellulose) (HPC)
[11] = dose: 50.0 mg/kg/injection, schedule: Q01DX005 (ip), vehicle: Klucel (hydroxypropylcellulose) (HPC)
[12] = dose: 100.0 mg/kg/injection, schedule: Q01DX001 (ip), vehicle: saline

Structure (SMILES): COC(=O)C[C@](O)(CCCC(C)(C)O)C(=O)O[C@@H]1C(OC)=C[C@]23CCCN2CCc2cc4c(cc2[C@H]13)OCO4
- T/C (dose: 0.06 mg/kg/injection, schedule: Q01DX005 (iv), vehicle: clinical formulation): 106 % of control
- T/C (dose: 0.06 mg/kg/injection, schedule: Q01DX005 (iv), vehicle: saline): 104 % of control
- T/C (dose: 0.12 mg/kg/injection, schedule: Q01DX005 (iv), vehicle: clinical formulation): 112 % of control
- T/C (dose: 0.12 mg/kg/injection, schedule: Q01DX005 (iv), vehicle: saline): 102 % of control
- T/C (dose: 0.12 mg/kg/injection, schedule: Q01DX009 (ip), vehicle: clinical formulation): 155 % of control
- T/C (dose: 0.12 mg/kg/injection, schedule: Q01DX009 (ip), vehicle: saline): 152 % of control
- T/C (dose: 0.25 mg/kg/injection, schedule: Q01DX005 (iv), vehicle: clinical formulation): 121 % of control
- T/C (dose: 0.25 mg/kg/injection, schedule: Q01DX005 (iv), vehicle: saline): 102 % of control
- T/C (dose: 0.25 mg/kg/injection, schedule: Q01DX009 (ip), vehicle: clinical formulation): 166 % of control
- T/C (dose: 0.25 mg/kg/injection, schedule: Q01DX009 (ip), vehicle: saline): 162 % of control
- T/C (dose: 0.5 mg/kg/injection, schedule: Q01DX005 (iv), vehicle: clinical formulation): 160 % of control
- T/C (dose: 0.5 mg/kg/injection, schedule: Q01DX009 (ip), vehicle: clinical formulation): 199 % of control
- T/C (dose: 0.5 mg/kg/injection, schedule: Q01DX009 (ip), vehicle: saline): 185 % of control
- T/C (dose: 0.58 mg/kg/injection, schedule: Q01DX009 (ip), vehicle: acid diluted with saline): 194 % of control
- T/C (dose: 0.75 mg/kg/injection, schedule: Q01DX009 (ip), vehicle: acid diluted with saline): 173 % of control and 180 % of control
- T/C (dose: 1.0 mg/kg/injection, schedule: Q01DX005 (iv), vehicle: clinical formulation): 194 % of control
- T/C (dose: 1.0 mg/kg/injection, schedule: Q01DX005 (iv), vehicle: saline): 168 % of control
- T/C (dose: 1.0 mg/kg/injection, schedule: Q01DX009 (ip), vehicle: clinical formulation): 252 % of control
- T/C (dose: 1.65 mg/kg/injection, schedule: Q01DX009 (ip), vehicle: acid diluted with saline): 211 % of control and 229 % of control
- T/C (dose: 1.75 mg/kg/injection, schedule: Q01DX009 (ip), vehicle: acid diluted with saline): 229 % of control and 234 % of control and 93 % of control
- T/C (dose: 1.8 mg/kg/injection, schedule: Q04DX003 (ip), vehicle: saline + alcohol): 159 % of control
- T/C (dose: 1.8 mg/kg/injection, schedule: Q04DX003 (ip), vehicle: saline): 152 % of control
- T/C (dose: 2.0 mg/kg/injection, schedule: Q01DX005 (iv), vehicle: saline): 203 % of control
- T/C (dose: 2.25 mg/kg/injection, schedule: Q01DX009 (ip), vehicle: acid diluted with saline): 223 % of control (2×) and 93 % of control
- T/C (dose: 2.5 mg/kg/injection, schedule: Q01DX009 (ip), vehicle: acid diluted with saline): 106 % of control and 95 % of control
- T/C (dose: 3.0 mg/kg/injection, schedule: Q01DX009 (ip), vehicle: acid diluted with saline): 66 % of control
- T/C (dose: 3.0 mg/kg/injection, schedule: Q04DX003 (ip), vehicle: saline + alcohol): 99 % of control
- T/C (dose: 3.33 mg/kg/injection, schedule: Q04DX003 (ip), vehicle: saline): 103 % of control

Structure (SMILES): CN(C)c1cc[n+](C=O)cc1
- T/C (dose: 3.75 mg/kg/injection, schedule: Q01DX005 (ip), vehicle: saline): 102 % of control
- T/C (dose: 7.5 mg/kg/injection, schedule: Q01DX005 (ip), vehicle: saline): 95 % of control
- T/C (dose: 15.0 mg/kg/injection, schedule: Q01DX005 (ip), vehicle: saline): 100 % of control

Structure (SMILES): NC(=O)c1ncnc2nc[nH]c12
- T/C (dose: 1.56 mg/kg/injection, schedule: Q01DX005 (ip), vehicle: saline with Tween-80): 100 % of control and 102 % of control and 96 % of control
- T/C (dose: 3.13 mg/kg/injection, schedule: Q01DX005 (ip), vehicle: saline with Tween-80): 100 % of control and 105 % of control
- T/C (dose: 12.5 mg/kg/injection, schedule: Q01DX005 (ip), vehicle: saline with Tween-80): 111 % of control and 114 % of control

Structure (SMILES): CCCCCC1(c2ccccc2)CCCC(C#N)C1=O (configuration not stated)
- T/C (dose: 100.0 mg/kg/injection, schedule: Q04DX003 (ip), vehicle: saline with Tween-80): 101 % of control
- T/C (dose: 200.0 mg/kg/injection, schedule: Q04DX003 (ip), vehicle: saline with Tween-80): 88 % of control

Structure (SMILES): CCOC(=O)/C(C#N)=C(/SC)N1CC1
- T/C [1]: 100 % of control
- T/C [2]: 93 % of control
- T/C [3]: 110 % of control and 90 % of control

Structure (SMILES): CC1CCC(C(C)C2C(O)CC3C4CCC5CC(N)CCC5(C)C4CCC32C)=NC1 (configuration not stated) (tested in a mixture with another compound)
- T/C (dose: 6.25 mg/kg/injection, schedule: Q01DX009 (ip), vehicle: Klucel (hydroxypropylcellulose) (HPC)): 100 % of control
- T/C [1]: 94 % of control
- T/C [2]: 105 % of control

Structure (SMILES): O=C(/C=C/c1ccccc1)N1CCCCC1
- T/C [4]: 90 % of control
- T/C [5]: 95 % of control
- T/C (dose: 400.0 mg/kg/injection, schedule: Q01DX009 (ip), vehicle: saline with Tween-80): 95 % of control

Structure (SMILES): O=C(c1ccccc1)c1ccccc1NC(=O)C(F)(F)F
- T/C (dose: 50.0 mg/kg/injection, schedule: Q01DX009 (ip), vehicle: saline with Tween-80): 100 % of control
- T/C [4]: 95 % of control
- T/C [5]: 96 % of control

Structure (SMILES): CCn1c(-c2ccccc2)nc(=S)c(C(=O)c2ccccc2)c1SC
- T/C [6]: 98 % of control
- T/C [7]: 100 % of control
- T/C [8]: 100 % of control

Structure (SMILES): Cc1c([O-])on[n+]1Cc1ccccc1
- T/C (dose: 60.0 mg/kg/injection, schedule: Q01DX005 (ip), vehicle: saline with Tween-80): 102 % of control

Structure (SMILES): O=C(c1ccccc1)C(c1ccccc1)C(Cl)c1ccccc1 (configuration not stated)
- T/C [3]: 100 % of control
- T/C [9]: 97 % of control
- T/C [6]: 98 % of control
- T/C [10]: 99 % of control
- T/C [7]: 100 % of control
- T/C [8]: 100 % of control

Structure (SMILES): CC1NCCc2c1[nH]c1ccccc21 (configuration not stated)
- T/C (dose: 12.5 mg/kg/injection, schedule: Q01DX005 (ip), vehicle: Klucel (hydroxypropylcellulose) (HPC)): 101 % of control
- T/C (dose: 25.0 mg/kg/injection, schedule: Q01DX005 (ip), vehicle: Klucel (hydroxypropylcellulose) (HPC)): 97 % of control
- T/C [11]: 101 % of control and 97 % of control

Structure (SMILES): CC1=Nc2ccccc2NC2(C1)C(C1COC(C)(C)O1)OC1OC(C)(C)OC12 (configuration not stated)
- T/C (dose: 50.0 mg/kg/injection, schedule: Q01DX005 (ip), vehicle: saline with Tween-80): 95 % of control
- T/C (dose: 100.0 mg/kg/injection, schedule: Q01DX005 (ip), vehicle: saline with Tween-80): 99 % of control
- T/C (dose: 200.0 mg/kg/injection, schedule: Q01DX005 (ip), vehicle: saline with Tween-80): 100 % of control

Structure (SMILES): COC(=O)C1(C)N=C1N(C)C (configuration not stated)
- T/C (dose: 100.0 mg/kg/injection, schedule: Q04DX002 (ip), vehicle: saline): 92 % of control
- T/C (dose: 200.0 mg/kg/injection, schedule: Q04DX002 (ip), vehicle: saline): 90 % of control
- T/C (dose: 400.0 mg/kg/injection, schedule: Q04DX002 (ip), vehicle: saline): 93 % of control

Structure (SMILES): CCCC(=O)N(CCC(N)=O)c1ncc([N+](=O)[O-])s1
- T/C (dose: 25.0 mg/kg/injection, schedule: Q01DX001 (ip), vehicle: saline): 94 % of control
- T/C (dose: 50.0 mg/kg/injection, schedule: Q01DX001 (ip), vehicle: saline): 100 % of control
- T/C [12]: 100 % of control

Structure (SMILES): Nc1nc2nc(N=Nc3ccc(S(=O)(=O)O)cc3)[nH]c2c(=O)[nH]1
- T/C [11]: 104 % of control
- T/C (dose: 100.0 mg/kg/injection, schedule: Q01DX005 (ip), vehicle: Klucel (hydroxypropylcellulose) (HPC)): 104 % of control
- T/C (dose: 200.0 mg/kg/injection, schedule: Q01DX005 (ip), vehicle: Klucel (hydroxypropylcellulose) (HPC)): 104 % of control

Structure (SMILES): CCCCC1C(C#N)C(=O)NC(=O)C1C#N (configuration not stated)
- T/C [3]: 100 % of control
- T/C [9]: 95 % of control
- T/C [10]: 99 % of control

Structure (SMILES): O=Cc1c(-c2ccc(-c3ccccc3)cc2)nc2n1CCS2
- T/C (dose: 100.0 mg/kg/injection, schedule: Q01DX001 (ip), vehicle: Klucel (hydroxypropylcellulose) (HPC)): 100 % of control
- T/C (dose: 200.0 mg/kg/injection, schedule: Q01DX001 (ip), vehicle: Klucel (hydroxypropylcellulose) (HPC)): 97 % of control

Structure (SMILES): CCOC(=O)C1CCCN(C)C1 (configuration not stated)
- T/C [6]: 104 % of control
- T/C [7]: 100 % of control
- T/C [8]: 100 % of control

Structure (SMILES): CCCCCCCCCCCC1C=CCC1 (configuration not stated)
- T/C [12]: 99 % of control
- T/C (dose: 200.0 mg/kg/injection, schedule: Q01DX001 (ip), vehicle: saline): 100 % of control
- T/C (dose: 400.0 mg/kg/injection, schedule: Q01DX001 (ip), vehicle: saline): 100 % of control

Structure (SMILES): Cc1cc(C)c2c(c1)sc1n[nH]c(=S)n12
- T/C [3]: 98 % of control
- T/C [9]: 90 % of control
- T/C [10]: 90 % of control
